# Measurements reported in ChEMBL document CHEMBL4043150, “Discovery of novel pyrazolo[1,5-a]pyridine-based EP1 receptor antagonists by scaffold hopping: Design, synthesis, and structure-activity relationships” (Bioorg Med Chem Lett, 2017).
# Active and inactive are the calls of the source. The rule behind the calls is not given here.
# Columns and labels:
# [1] = target: T1, Prostaglandin E2 receptor EP1 subtype (Rattus norvegicus) (UniProt P70597); assay: Antagonist activity at rat His-tagged EP1 receptor expressed in African green monkey COS1 cells assessed as reduction in PGE2-induced increase in intracellular calcium level at 10 uM preincubated for 60 secs followed by PGE2 addition measured for 60 secs by Fluo 4-AM dye-based fluorescence assay relative to control; assay type: functional, cell-based
# T1 sequence (whole entry): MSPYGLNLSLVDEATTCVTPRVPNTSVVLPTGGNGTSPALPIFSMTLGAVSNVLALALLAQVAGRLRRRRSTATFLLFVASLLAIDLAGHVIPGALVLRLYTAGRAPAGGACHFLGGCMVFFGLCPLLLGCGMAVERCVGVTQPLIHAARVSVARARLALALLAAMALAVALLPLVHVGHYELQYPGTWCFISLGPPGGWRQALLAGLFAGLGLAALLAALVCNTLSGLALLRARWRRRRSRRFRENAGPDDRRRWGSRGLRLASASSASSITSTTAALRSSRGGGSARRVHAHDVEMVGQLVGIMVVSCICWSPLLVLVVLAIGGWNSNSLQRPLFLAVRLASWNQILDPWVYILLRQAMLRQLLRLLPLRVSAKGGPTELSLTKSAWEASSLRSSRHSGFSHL
# [2] = target: T2, Prostaglandin E2 receptor EP1 subtype (Rattus norvegicus, UniProt P70597); assay: Antagonist activity at rat His-tagged EP1 receptor expressed in African green monkey COS1 cells assessed as reduction in PGE2-induced increase in intracellular calcium level preincubated for 60 secs followed by PGE2 addition measured for 60 secs by Fluo 4-AM dye-based fluorescence assay; assay type: functional, cell-based
# T2 sequence (P70597 whole entry): T1 sequence (whole entry)
# [3] = Initial plasma concentration in rat at 1 mg/kg, iv; assay type: ADME, organism-based
# Rattus norvegicus = assay: Suppression of 17-PTP-induced bladder contraction in Wistar rat assessed as change in intravesical pressure at 1 mg/kg, iv pretreated for 5 mins followed by 17-PTP administration for 9 times with 30 mins time interval up to 245 mins post dose; assay type: functional, organism-based
# [4] = Aqueous solubility of compound; assay type: physicochemical; details: buffer
# [5] = Total clearance in rat at 1 mg/kg, iv; assay type: ADME, organism-based; details: in vivo
# [6] = AUC (0 to infinity) in rat at 1 mg/kg, iv; assay type: ADME, organism-based; set-up: dose 1 mg/kg, time infinity, route intravenous; details: in vivo
# [7] = Volume of distribution at steady state in rat at 1 mg/kg, iv; assay type: ADME, organism-based; details: in vivo, read-out: Vdss
SMILES,IC50 [2] [µM],further results
COc1ccccc1-c1nn2cc(Cl)ccc2c1Cc1cccc(C(=O)O)n1,,inhibition [1]: 29%
O=C(O)c1cccc(Cc2c(-c3ccccc3)nn3cc(C4CC4)ccc23)n1,0.19,
COc1ccc2c(Cc3cccc(C(=O)O)n3)c(-c3ccccc3)nn2c1,,C0 [3]: 2.66 µg/mL; Activity (Rattus norvegicus): Active; solubility [4]: > 75 µM; clearance [5]: 0.367 L/h/kg; AUC(0-inf) [6]: 2.78 µg·h/mL; Vd [7]: 0.45 L/kg
O=C(O)c1cccc(Cc2c(-c3ccccc3)nn3cc(Cl)ccc23)n1,,C0 [3]: 2.75 µg/mL; Activity (Rattus norvegicus): Active; clearance [5]: 0.642 L/h/kg; AUC(0-inf) [6]: 1.59 µg·h/mL; Vd [7]: 0.489 L/kg
COc1cccc(-c2nn3cc(Cl)ccc3c2Cc2cccc(C(=O)O)n2)c1,0.8,
O=C(O)c1cccc(Cc2c(-c3ccco3)nn3cc(Cl)ccc23)n1,1.2,
CC(C)Cc1nn2cc(Cl)ccc2c1Cc1cccc(C(=O)O)n1,0.2,
O=C(O)c1cccc(Cc2c(-c3ccsc3)nn3cc(Cl)ccc23)n1,0.11,
O=C(O)c1cccc(Cc2c(-c3cccc(Cl)c3)nn3cc(Cl)ccc23)n1,0.48,
O=C(O)c1cccc(Cc2c(-c3cccs3)nn3cc(Cl)ccc23)n1,1.1,
O=C(O)c1cccc(Cc2c(N3CCCCCC3)nn3cc(Cl)ccc23)n1,1.4,
COc1cccc2c(Cc3cccc(C(=O)O)n3)c(-c3ccccc3)nn12,,inhibition [1]: 33%
O=C(O)c1cccc(Cc2c(-c3ccoc3)nn3cc(Cl)ccc23)n1,0.13,
O=C(O)c1cccc(Cc2c(-c3ccccc3)nn3ccccc23)n1,2.3,
O=C(O)c1cccc(Cc2c(-c3ccccc3Cl)nn3cc(Cl)ccc23)n1,0.64,
COc1ccc2c(Cc3cncc(C(=O)O)n3)c(-c3ccccc3)nn2c1,4.5,

SMILES,IC50 [2] [µM],further results
O=C(O)c1cccc(Cc2c(N3CCCC3)nn3cc(Cl)ccc23)n1,1.8,
O=C(O)c1cccc(Cc2c(-c3ccc(Cl)cc3)nn3cc(Cl)ccc23)n1,1.1,
O=C(O)c1cccc(Cc2c(N3CCOCC3)nn3cc(Cl)ccc23)n1,0.74,
COc1ccn2nc(-c3ccccc3)c(Cc3cccc(C(=O)O)n3)c2c1,9.1,
O=C(O)c1cccc(Cc2c(N3CCSCC3)nn3cc(Cl)ccc23)n1,0.26,
C=C(C)c1ccc2c(Cc3cccc(C(=O)O)n3)c(-c3ccccc3)nn2c1,0.29,
O=C(O)c1cccc(Cc2c(-c3ccccc3)nn3cc(F)ccc23)n1,0.38,
O=C(O)c1cccc(Cc2c(C3CC3)nn3cc(Cl)ccc23)n1,1.5,
N#Cc1ccc2c(Cc3cccc(C(=O)O)n3)c(-c3ccccc3)nn2c1,0.44,
O=C(O)c1cccc(Cc2c(C3CCCCC3)nn3cc(Cl)ccc23)n1,1.2,
O=C(O)c1cccc(Cc2c(-c3ccccc3)nn3cc(C(F)(F)F)ccc23)n1,0.016,C0 [3]: 2.43 µg/mL; Activity (Rattus norvegicus): Active; clearance [5]: 0.23 L/h/kg; AUC(0-inf) [6]: 4.36 µg·h/mL; Vd [7]: 0.473 L/kg
COc1ccc(-c2nn3cc(Cl)ccc3c2Cc2cccc(C(=O)O)n2)cc1,5.4,
Cc1cc(C(=O)O)nn1Cc1cc(Cl)cc2cc(-c3ccccc3)nn12,,solubility [4]: > 75 µM
CS(=O)(=O)c1ccc2c(Cc3cccc(C(=O)O)n3)c(-c3ccccc3)nn2c1,5.4,
CC(=O)c1ccc2c(Cc3cccc(C(=O)O)n3)c(-c3ccccc3)nn2c1,1.1,
